# Assay results taken from patent publication US9351947B2, “Use of catecholamines and related compounds as anti-angiogenic agents” (National Research Council of Canada, priority 2007, dated 2016).
# Entries after “also recorded” stand apart in the source; their conditions may differ. Like-named read-outs stand apart in the source and are kept apart here.
# How the values were obtained:
# HUVECs [1] = experiment: Matrigel endothelial cell capillary-tube formation assay; assay type: cell-based, human; details: 22 h; for Activity (anti-angiogenicity): measured at 20 μM, HUVECs on Matrigel
# Method: HUVECs were purchased from Cedarlane Laboratories (Burlington, Canada) and maintained in Endothelial Cell Basal Medium-2 (EBM-2) supplemented with EGM-2 growth factor mixture (Clonetics) and 2% Foetal bovine serum. The cells were cultured at 37° C. under a humidified 95%/5% (v/v) mixture of air and CO2.
# Matrigel endothelial cell tube formation assays were performed using BD Matrigel™ (Becton, Dickinson). BD Matrigel™ was thawed at 4° C., and 150 μL were quickly added to each well of a 48-well plate and allowed to solidify for 60 min at 37° C. HUVECs (7×10^4 cells/mL) In EC basal medium-2 (EBM-2) were seeded 250 μL per well onto the surface of the solid BD Matrigel™ in the presence of the compounds to be tested. The cells were incubated for 22 h at […] in a 5% CO2 incubator. Tube formation was monitored by using a Leitz Labovert (Leitz, Wetzlar, Germany) inverted microscope. Two randomly selected two microscopic fields were photographed with a digital camera (Nikon, COOLPICKS 995). The total length of tube structures in each photograph was measured using ImageJ™ free software (http://rsb.info.nih.gov/ij/) and was normalized to that of control with no test compound. Each reported value represents the average of total six photographs from three independent experiments.
# angiogenesis = details: cited from earlier work; for Activity (angiogenic / anti-angiogenic): Ref. Thaker et al., 2006 (a), Ref. Basu et al., 2001 (b)
# HUVECs [2] = experiment: Invasion of HUVECs through Matrigel-coated filter (Matrigel Invasion Chambers); assay type: cell-based, human; details: measured at 20 μM; HUVECs
# Method: HUVECs were purchased from Cedarlane Laboratories (Burlington, Canada) and maintained in Endothelial Cell Basal Medium-2 (EBM-2) supplemented with EGM-2 growth factor mixture (Clonetics) and 2% Foetal bovine serum. The cells were cultured at 37° C. under a humidified 95%/5% (v/v) mixture of air and CO2. Invasion of endothelial cells was measured using BD BioCoatTM Growth Factor Reduced MatrigelTM Invasion Chambers (Beckton-Dickinson; […]). EBM-2 medium (500 μL each) was placed into the lower wells. HUVECs (2.5×10^4) in EBM-2 serum-free medium (500 μL) were seeded into each of the upper wells and incubated in the presence of a test compound. HUVECs were allowed to migrate for 36 h at 37° C. in an atmosphere of 95% air/5% CO2. HUVECs that remained on the upper surface of the filter were removed using a cotton swab. HUVECs that had migrated to the lower surface of the filters were fixed with methanol, stained with 0.1% crystal violet/20% (v/v) methanol and examined using a Leitz Labovert (Leitz, Wetzlar, Germany) inverted microscope after mounting on a slide. Three randomly selected microscopic fields were digitally captured using a Nikon […] 995 digital camera and the number of HUVECs in each photograph were directly counted. Each reported value represents the average and standard deviation of a total […] from two independent experiments.
# [3] = Optical stability (racemization) in eye drop formulations, 10 days at 55° C., chiral HPLC; assay type: physicochemical; details: for % optical purity: 3.0 mg/mL, pH 6.0, starting material 99.87%
# Method: The optical isomers of (S)-isoproterenol bitartrate and (S)-isoproterenol dipivalate hydrochloride were separated by HPLC using Shiseido chiral CD-Ph column (250×4.6 mm; 5 μm; isocratic 60:40 of 0.5 M sodium perchlorate/water and acetonitrile; flow rate, 1.0 mL/min). The elution profile was monitored by the absorption at 223 nm for isoproterenol bitartrate and 264 nm for isoproterenol dipivalate hydrochloride. The optical impurities were quantitated by the absorbance at 223 nm for isoproterenol bitartrate and 264 nm for isoproterenol dipivalate hydrochloride and by using a curve fitting software TABLECurve2D (Systat). The impurities of (R)-isoproterenol bitartrate and (R)-isoproterenol dipivalate hydrochloride were estimated as […], respectively. Thus, the racemization induced during synthesis and purification was minimal, if it occurred.
# Table 2 describes the optical purities of (S)-isoproterenol and (S)-isoproterenol dipivalate after incubation in various eye drop formulations for 10 days at 55° C. and compared with those before incubation. The incubation for 10 days at 55° C. corresponds to the incubation for 167 days at 22° C.
# [4] = Storage stability of the eye drop at 4° C. (HPLC profiles); assay type: physicochemical; details: 0.10% (w/v) eye drop, pH 5.5, one month of storage at 4° C.
# retinal capillaries = experiment: Glycation of retinal capillaries in diabetic rats (anti-glycated BSA / anti-lectin staining); assay type: in vivo, Sprague-Dawley rats
# Method: Animal weights were monitored every week.
# The effects of (S)-isoproterenol on diabetic retinopathy were studied by staining retinal capillaries with antibodies against lectin. The capillary density at the retinal center, corresponding to the macular of the human eye, was analyzed.
# Diabetes induces glycation in retina. Since (S)-isoproterenol is a potent anti-glycation agent, penetration of (S)-isoproterenol reduces glycation in diabetic retinal capillaries. Thus, the retinas, which were stained with antibodies against lectin, were also stained with antibodies against glycated bovine serum albumin, and the degree of glycation of retinal capillaries was analyzed.
# [5] = in vivo; cited from earlier work
# [6] = 2.47% instilled to normal human eyes; cited from earlier work
# [7] = acute intravenous, mice; cited from earlier work
compound,measurement,setting,value
"NC[C@@H](O)c1ccc(O)c(O)c1 [(S)-Noradrenaline, reference compound]",Activity (anti-angiogenicity),HUVECs [1],Non-antiangiogenic
same,Activity (anti-angiogenicity),HUVECs [1]; listed as (S)-noradrenaline,not anti-angiogenic
CCNC[C@@H](O)c1ccc(O)c(O)c1 [(S)-N-ethylnoradrenaline],Activity (anti-angiogenicity),HUVECs [1],Anti-angiogenic
same,Activity (anti-angiogenicity),HUVECs [1]; listed as (S)—N-ethylnoradrenaline,anti-angiogenic activity
"CNCC(O)c1ccc(O)c(O)c1 (racemic) [(R,S)-Adrenaline]",Activity (angiogenic / anti-angiogenic),angiogenesis,Angiogenic
same,Activity (anti-angiogenicity),HUVECs [1],no anti-angiogenic activity
same,Activity (anti-invasion),HUVECs [2],Non-antiinvasive
CO[C@H](CNC(C)C)c1ccc(O)c(O)c1 [(S)-1-(N-isopropyl)-3-methoxydopamine],Activity (anti-angiogenicity),HUVECs [1],Anti-angiogenic
"CCC(NC(C)C)C(O)c1ccc(O)c(O)c1 (racemic) [Isoetharine, 1-(3,4-dihydroxyphenyl)-2-(Isopropylamino)-1(R,S)-butanol]",Activity (anti-angiogenicity),HUVECs [1],Anti-angiogenic
same,Activity (anti-angiogenicity),HUVECs [1]; listed as isoetharine,anti-angiogenic activity
CCCNC[C@@H](O)c1ccc(O)c(O)c1 [(S)-N-n-propylnoradrenaline],Activity (anti-angiogenicity),HUVECs [1],Anti-angiogenic
same,Activity (anti-angiogenicity),HUVECs [1]; listed as (S)—N-propylnoradrenaline,anti-angiogenic activity
CC(C)NC[C@@H](O)c1ccc(OC(=O)C(C)(C)C)c(OC(=O)C(C)(C)C)c1 [(S)-isoproterenol dipivalate],conversion to the (R)-isoform,[3]; 10 days at 55° C.,0.02%
same,% optical purity,"[3]; 10 days at 55° C., NaCl 8 mg/mL, Benzalkonium chloride 0.04 mg/mL, Tween 80 2.5 mg/mL",>99.90%
same,% optical purity,"[3]; 10 days at 55° C., Povidone 2 mg/mL, Benzalkonium chloride 0.04 mg/mL, D-Mannitol 54.7 mg/mL",99.90%
same,% optical purity,"[3]; 10 days at 55° C., Povidone 2 mg/mL, D-Mannitol 54.7 mg/mL, Chlorobutanol 1 mg/mL, 2-hydroxypropyl cyclodextrin 10.1 mg/mL",99.74%
same,% optical purity,"[3]; 10 days at 55° C., Povidone 2 mg/mL, NaCl 8 mg/mL, Benzalkonium chloride 0.04 mg/mL, 2-hydroxypropyl cyclodextrin 10.1 mg/mL",99.86%
same,average optical purity after incubating 10 days at 55° C.,[3]; average over the eye drop formulations,approximately 99.85±0.08%
same,optical purity after 2 years of storage at room temperature,"[3]; extrapolated, from 99.87%",99.78%
same,blood glucose level,"Group II, non-diabetic rats receiving prodrug eye drop, 27 week period",5.1 ± 0.4 mM
same,blood glucose level,"Group IV, diabetic rats receiving prodrug eye drop, stabilized level",27 ± 5 mM
same,degradation of the active ingredient in eye drop (HPLC profiles),[4],No degradation
same,effect on glycation in retinal capillaries,retinal capillaries; 0.1% eye drop,significantly reduced the glycation in retinal capillaries
same,red fluorescence intensity of AGEs normalized by the retinal capillary density,"retinal capillaries; 0.1% eye drop twice a day, P 0.068 vs diabetic rats with vehicle",0.44±0.17
CNCC(O)c1ccc(OC(=O)C(C)(C)C)c(OC(=O)C(C)(C)C)c1 (centres unmarked) [Dipivefrin],enhancement of ocular absorption versus adrenaline,[5],17 time
NCCc1ccc(O)c(O)c1 [Dopamine],concentration showing effective anti-angiogenic activity,"angiogenesis; Basu et al., 2001",1 µM
same,Activity (angiogenic / anti-angiogenic),angiogenesis,Anti-angiogenic^b
same,potency (inhibition of capillary tube formation),"HUVECs [1]; angiogenic assay condition used in FIG. 1, 1-50 μM",comparable potency
"CC(C)NCC(O)c1ccc(O)c(O)c1 (racemic) [(R,S)-isoproterenol, reference compound]",Activity (anti-angiogenicity),HUVECs [1],did not show anti-angiogenic activity; also recorded: no anti-angiogenic activity; also recorded: Non-antiangiogenic
same,duration of reduction in ocular tension,[6],at least 12 h
same,reduction in ocular tension,[6],20%
CO[C@@H](CNC(C)C)c1ccc(O)c(O)c1 [(R)-1-(N-isopropyl)-3-methoxydopamine],Activity (anti-angiogenicity),HUVECs [1],Anti-angiogenic
CCCCNC[C@@H](O)c1ccc(O)c(O)c1 [(S)-N-n-butylnoradrenaline],Activity (anti-angiogenicity),HUVECs [1],Anti-angiogenic
same,Activity (anti-angiogenicity),HUVECs [1]; listed as (S)—N-butylnoradrenaline,anti-angiogenic activity
"CC(C)(C)NCC(O)c1ccc(O)c(O)c1 (racemic) [(R,S)-N-tert-butylnoradrenaline]",Activity (anti-angiogenicity),HUVECs [1],Anti-angiogenic
same,Activity (anti-angiogenicity),"HUVECs [1]; listed as (R,S)—N-tert-butylnoradrenaline",anti-angiogenic activity
NC[C@H](O)c1ccc(O)c(O)c1 [(R)-Noradrenaline],Activity (angiogenic / anti-angiogenic),angiogenesis,Angiogenic^a
CC(C)NC[C@H](O)c1ccc(O)c(O)c1 [(R)-isoproterenol],Activity (angiogenic / anti-angiogenic),angiogenesis,Angiogenic
same,Activity (angiogenic / anti-angiogenic),angiogenesis; listed as (R)-Isoproterenol,angiogenic
same,LD50,[7],57 ± 2 mg/kg
same,Activity (anti-invasion),HUVECs [2],did not show any anti-invasion activity; also recorded: Non-antiinvasive
